Assay results published in publication PMC8062632, “Structural studies of phosphorylation-dependent interactions between the V2R receptor and arrestin-2” (Nature Communications, 2021).

Molecular target: arrestin2
Test: Cou-facilitated FRET assay for dissociation constant determination
Format: binding, bovine
Conditions: for Kd: 1 μM arrestin2 L293Cou with 1 μM Fab30, rising phosphopeptide concentrations, 25 °C, excitation 280 nm, ratio F450/F330; for reduction of affinity for arrestin2 compared with V2Rpp-FP: from FRET Kd values
Protocol: Steady state fluorescence was measured by a Varioskan flash (Thermo Scientific) instrument at 25 °C. […] Fluorescence intensity analysis of normalized ratio F450/F330 was calculated from relative fluorescence intensity at 450 and 330 nm. The dissociation constant was determined by fitting to the nonlinear regression equation y = Bmax [X] / (Kd + [X]) + NS[X] + Background as ours previously reported. […]
different phospho-peptide binding. a). Schematic flowchart of FRET assay for dissociation constant determination of arrestin-phospho-peptide interaction.
The synthetic fluorescent amino acid L-(7-hydroxycoumarin-4-yl) ethylglycine (Cou) was genetically incorporated into arrestin2 and served as a fluorescent acceptor for the emission light at 330 nm, and tryptophan served as the donor, which was excited at 280 nm. Cou produced its characteristic emission light at 450 nm. b). Analysis of the titration experiments monitored by FRET assay. The dissociation constant was determined by fitting to the nonlinear regression equation y = Bmax[X]/(Kd + [X]) + NS[X]+Background as previously described4. […]

Row | Structure (SMILES) | Kd [µM] | reduction of affinity for arrestin2 compared with V2Rpp-FP
1 | CC(C)C[C@H](NC(=O)[C@H](COP(=O)(O)O)NC(=O)[C@@H]1CCCN1C(=O)[C@@H]1CCCN1C(=O)[C@@H](NC(=O)[C@H](CCCNC(=N)N)NC(=O)CNC(=O)[C@H](CCCNC(=N)N)NC(=O)[C@H](C)N)[C@@H](C)O)C(=O)NCC(=O)N1CCC[C@H]1C(=O)N[C@@H](CCC(N)=O)C(=O)N[C@@H](CC(=O)O)C(=O)N[C@@H](CCC(=O)O)C(=O)N[C@@H](COP(=O)(O)O)C(=O)N[C@@H](CS)C(=O)N[C@H](C(=O)N[C@H](C(=O)N[C@@H](C)C(=O)N[C@@H](COP(=O)(O)O)C(=O)N[C@@H](COP(=O)(O)O)C(=O)N[C@@H](COP(=O)(O)O)C(=O)N[C@@H](CC(C)C)C(=O)N[C@@H](C)C(=O)N[C@@H](CCCCN)C(=O)N[C@@H](CC(=O)O)C(=O)N[C@H](C(=O)N[C@@H](CO)C(=O)N[C@@H](CO)C(=O)O)[C@@H](C)O)[C@@H](C)OP(=O)(O)O)[C@@H](C)OP(=O)(O)O [V2Rpp-1] | 3.3 ± 0.6 | approximately 3 fold
2 | CC(C)C[C@H](NC(=O)[C@H](COP(=O)(O)O)NC(=O)[C@@H]1CCCN1C(=O)[C@@H]1CCCN1C(=O)[C@@H](NC(=O)[C@H](CCCNC(=N)N)NC(=O)CNC(=O)[C@H](CCCNC(=N)N)NC(=O)[C@H](C)N)[C@@H](C)OP(=O)(O)O)C(=O)NCC(=O)N1CCC[C@H]1C(=O)N[C@@H](CCC(N)=O)C(=O)N[C@@H](CC(=O)O)C(=O)N[C@@H](CCC(=O)O)C(=O)N[C@@H](CO)C(=O)N[C@@H](CS)C(=O)N[C@H](C(=O)N[C@H](C(=O)N[C@@H](C)C(=O)N[C@@H](COP(=O)(O)O)C(=O)N[C@@H](COP(=O)(O)O)C(=O)N[C@@H](COP(=O)(O)O)C(=O)N[C@@H](CC(C)C)C(=O)N[C@@H](C)C(=O)N[C@@H](CCCCN)C(=O)N[C@@H](CC(=O)O)C(=O)N[C@H](C(=O)N[C@@H](CO)C(=O)N[C@@H](CO)C(=O)O)[C@@H](C)O)[C@@H](C)OP(=O)(O)O)[C@@H](C)OP(=O)(O)O [V2Rpp-3] | 3 ± 0.4 | approximately 3 fold
3 | CC(C)C[C@H](NC(=O)[C@H](COP(=O)(O)O)NC(=O)[C@@H]1CCCN1C(=O)[C@@H]1CCCN1C(=O)[C@@H](NC(=O)[C@H](CCCNC(=N)N)NC(=O)CNC(=O)[C@H](CCCNC(=N)N)NC(=O)[C@H](C)N)[C@@H](C)OP(=O)(O)O)C(=O)NCC(=O)N1CCC[C@H]1C(=O)N[C@@H](CCC(N)=O)C(=O)N[C@@H](CC(=O)O)C(=O)N[C@@H](CCC(=O)O)C(=O)N[C@@H](COP(=O)(O)O)C(=O)N[C@@H](CS)C(=O)N[C@H](C(=O)N[C@H](C(=O)N[C@@H](C)C(=O)N[C@@H](COP(=O)(O)O)C(=O)N[C@@H](COP(=O)(O)O)C(=O)N[C@@H](COP(=O)(O)O)C(=O)N[C@@H](CC(C)C)C(=O)N[C@@H](C)C(=O)N[C@@H](CCCCN)C(=O)N[C@@H](CC(=O)O)C(=O)N[C@H](C(=O)N[C@@H](CO)C(=O)N[C@@H](CO)C(=O)O)[C@@H](C)O)[C@@H](C)O)[C@@H](C)OP(=O)(O)O [V2Rpp-4] | 5.1 ± 0.7 | ~5 fold
